Data published in article PMC5326599 (Antiviral research, 2017).
“And” between values parts separate entries of the source, which are not always exact repeats. Equal values may be shown once. Marks after values point to notes of the source that are not given here.

Legend:
[1] = tested on: A/Udorn/72 (H3N2) virus (M2-WT); assay: microbe, parasite or virus in culture; format: cell-based; settings: Influenza A virus, H3N2, MDCK, read-out: Antiviral Efficacy EC50, A/Udorn/72 (H3N2) M2-WT
[2] = tested on: influenza A/Solomon Islands/3/2006 (H1N1) virus; design: species or system BALB/c mice; settings: mouse, in vivo
MDCK cells = settings: read-out: Cytotoxicity CC50, neutral red, 24 h
[3] = mouse, in vivo

SMILES	EC50 [1]	MDD ± SD (mean day of death) [2]	Survivors/Total [2]	survival rate / protection [2]	CC50 (MDCK cells)	body weight difference compared to placebos and normal control animals [3]	tolerability [3]
NC12CC3CC(CC(C3)C1)C2 [Amantadine (1), amantadine]	[…]	13.0 ± 6.4 days and 9.4 ± 1.9 days	[…]	[…]			
NC1CCC2(CC1)C1CC3CC(C1)CC2C3 (stereo not drawn) [Compound 3, spiroadamantane amine]			7/10^*** and 1/10 and 0/10	70%	27.6 ± 0.5 µM	3%	well tolerated
